What was measured:
Type in all cases: functional, cell-based
[1] = test system: SK-BR-3; test: Antiproliferative activity against human SK-BR-3 cells assessed as reduction in cell viability incubated for 24 hrs by MTT assay; conditions: SK-BR-3, 24 h
[2] = test system: MCF-10A; test: Antiproliferative activity against human MCF-10A cells assessed as reduction in cell viability incubated for 24 hrs by MTT assay
[3] = test system: MDA-MB-231; test: Antiproliferative activity against human MDA-MB-231 cells assessed as reduction in cell viability incubated for 24 hrs by MTT assay; conditions: MDA-MB-231, 24 h

Row | IC50 [1] | IC50 [3] | SMILES | IC50 [2]
1 | 13.5 µM | 19.1 µM | O=C(CCCCCCCCc1ccc(O)cc1)c1c(O)cccc1O [MALABARICONE B] | 62 µM
2 | 16.4 µM | 19.6 µM | O=C(CCCCCCCCc1ccc(O)c(O)c1)c1c(O)cccc1O [MALABARICONE C] | 97.3 µM

From ChEMBL document CHEMBL6083210, “Exploring apoptotic induction of malabaricone A in triple-negative breast cancer cells: an acylphenol phyto-entity isolated from the fruit rind of Myristica malabarica Lam” (RSC Med Chem, 2024)
